Assay results published in US20230063321A1, “Methods for Treating Inflammatory Bowel Diseases with alpha4beta7 Integrin Antagonists” (Protagonist Therapeutics, Inc., priority 2020, published 2023).
Numbered stars: 1 amine (or outer) side, 2 acyl side, 3 side chain; on linkers, the order of the positions; unused ones are H or OH. Bridge positions count the residues as written; N and C are the ends. Square brackets hold non-standard residues; d marks the D form. Peptide text beside a SMILES is read from it. I, II: the chains in the order shown. ξ: configuration not given here. Phe(4-tBu) = CC(C)(C)c1ccc(C[C@H](N)C(=O)O)cc1; Diglycolyl = O=C(COCC(=O)[*:2])[*:1]; NMeR = CN[C@@H](CCCNC(=N)N)C(=O)O; β3hE = N[C@@H](CCC(=O)O)CC(=O)O; Thr(3ξ) = CC(O)[C@H](N)C(=O)O; X1 = O=C(c1ccccc1C[*:2])[*:1]; Pen = CC(C)(S)[C@H](N)C(=O)O

Experiment: Study 1 pharmacokinetics in healthy male volunteers (liquid solution)

Question: For `CC(C)C[C@@H]1NC(=O)[C@H](C(C)O)NC(=O)[C@H](CC(=O)O)NC(=O)[C@H](CO)NC(=O)[C@H](CCCNC(=N)N)N(C)C(=O)c2ccccc2CSC(C)(C)[C@@H](C(=O)N[C@@H](Cc2ccc(C(C)(C)C)cc2)C(=O)N[C@@H](CCC(=O)O)CC(=O)N[C@H](CCCCNC(=O)COCC(=O)NCCCC[C@@H](NC(=O)C[C@H](CCC(=O)O)NC(=O)[C@H](Cc2ccc(C(C)(C)C)cc2)NC(=O)[C@H]2NC(=O)[C@H](CC(C)C)NC(=O)[C@H](C(C)O)NC(=O)[C@H](CC(=O)O)NC(=O)[C@H](CO)NC(=O)[C@H](CCCNC(=N)N)N(C)C(=O)c3ccccc3CSC2(C)C)C(=O)O)C(=O)O)NC1=O` (stereo partly drawn) [Compound A, ((2-Benzyl)-(N-Me-R)-Ser-Asp-Thr-Leu-Pen-(Phe(4-tBlu))-(β-homo-Glu)-(D-Lys)-OH)2 (SEQ ID NO: 5) and linker-DIG diglycolic acid] (I: [NMeR]SD[Thr(3ξ)]L[Pen][Phe(4-tBu)][β3hE][dK]-OH / II: [NMeR]SD[Thr(3ξ)]L[Pen][Phe(4-tBu)][β3hE][dK]-OH; linker I:9-II:9 via Diglycolyl; linker I:N-I:6, II:N-II:6 via X1), which dose excreted (male, human, faeces, oral, 300 mg, fecal recovery) is on record?
Answer: 1 to 2%

Question: What about the dose excreted at 24 h (male, human, faeces, oral, 1000 mg, 24-hour fecal recovery, intact, multiple dose) of the same compound?
Answer: 16.8%

Question: What about the Tmax (male, human, plasma, oral, 100 mg, Tmax (h), 100 mg Fed once daily, Day 1, Median (Min, Max)) of the same compound?
Answer: 4 h

Question: What about the Tmax (male, human, plasma, oral, 100 mg, Tmax (h), 100 mg Fed once daily, Day 14, Median (Min, Max)) of the same compound?
Answer: 4 h

Question: What about the Tmax (male, human, plasma, oral, 100 mg, Tmax (h), single dose 100 mg, Median (Min, Max)) of the same compound?
Answer: 2 h

Question: What about the Cmax (male, human, plasma, oral, 100 mg, mean peak plasma concentration (Cmax), single dose 100 mg) of the same compound?
Answer: 2.11 ng/mL

Question: What about the half-life (male, human, plasma, oral, 100 mg, t½ (h), single dose 100 mg, Mean ± SD, N = 4) of the same compound?
Answer: 3.05 ± 0.71 h

Question: What about the Tmax (male, human, plasma, oral, 300 mg, Tmax (h), 300 mg Fasted once daily, Day 1, Median (Min, Max)) of the same compound?
Answer: 2 h

Question: And the Tmax (male, human, plasma, oral, 300 mg, Tmax (h), 300 mg Fasted once daily, Day 14, Median (Min, Max))?
Answer: 2 h

Question: And the Tmax (male, human, plasma, oral, 300 mg, Tmax (h), 300 mg Fed once daily, Day 1, Median (Min, Max))?
Answer: 4 h

Question: And the Tmax (male, human, plasma, oral, 300 mg, Tmax (h), 300 mg Fed once daily, Day 14, Median (Min, Max))?
Answer: 4 h

Question: What about the Tmax (male, human, plasma, oral, 300 mg, Tmax (h), single dose 300 mg Fasted, Median (Min, Max)) of the same compound?
Answer: 3 h

Question: What about the Tmax (male, human, plasma, oral, 300 mg, Tmax (h), single dose 300 mg High Fat Meal, Median (Min, Max)) of the same compound?
Answer: 4 h

Question: What about the half-life (male, human, plasma, oral, 300 mg, mean elimination half-life, single doses 100 and 300 mg) of the same compound?
Answer: 3.1 to 4 h

Question: What about the half-life (male, human, plasma, oral, 300 mg, t½ (h), 300 mg Fasted once daily, Day 1, Mean ± SD) of the same compound?
Answer: 5.16 ± 1.92 h

Question: And the half-life (male, human, plasma, oral, 300 mg, t½ (h), 300 mg Fasted once daily, Day 14, Mean ± SD, N = 7)?
Answer: 7.31 ± 3.86 h

Question: And the half-life (male, human, plasma, oral, 300 mg, t½ (h), single dose 300 mg Fasted, Mean ± SD, N = 4)?
Answer: 4.02 ± 1.37 h

Question: What about the Tmax (male, human, plasma, oral, 450 mg, Tmax (h), 450 mg Twice Daily, Day 1, Median (min, max)) of the same compound?
Answer: 2 h

Question: And the Tmax (male, human, plasma, oral, 450 mg, Tmax (h), 450 mg Twice Daily, Day 5, Median (min, max))?
Answer: 2 h

Question: What about the Tmax (male, human, plasma, oral, 900 mg, Tmax (h), 900 mg Once Daily, Day 1, Median (min, max)) of the same compound?
Answer: 2 h

Question: And the Tmax (male, human, plasma, oral, 900 mg, Tmax (h), 900 mg Once Daily, Day 5, Median (min, max))?
Answer: 2 h

Question: And the half-life (male, human, plasma, oral, 900 mg, t½ (h), 900 mg Once Daily, Day 1, Mean ± SD)?
Answer: 5.27 ± 2.4 h

Question: What about the half-life (male, human, plasma, oral, 900 mg, t½ (h), 900 mg Once Daily, Day 5, Mean ± SD) of the same compound?
Answer: 6.24 ± 2.97 h

Question: What about the Tmax (male, human, plasma, oral, 1000 mg, Tmax (h), 1000 mg Fasted once daily, Day 1, Median (Min, Max)) of the same compound?
Answer: 2 h

Question: What about the Tmax (male, human, plasma, oral, 1000 mg, Tmax (h), 1000 mg Fasted once daily, Day 14, Median (Min, Max)) of the same compound?
Answer: 2 h

Question: And the Tmax (male, human, plasma, oral, 1000 mg, Tmax (h), single dose 1000 mg, Median (Min, Max))?
Answer: 4 h

Question: What about the half-life (male, human, plasma, oral, 1000 mg, t½ (h), 1000 mg Fasted once daily, Day 1, Mean ± SD) of the same compound?
Answer: 6.6 ± 1.99 h

Question: What about the half-life (male, human, plasma, oral, 1000 mg, t½ (h), 1000 mg Fasted once daily, Day 14, Mean ± SD) of the same compound?
Answer: 7.7 ± 3.69 h

Question: What about the half-life (male, human, plasma, oral, 1000 mg, t½ (h), single dose 1000 mg, Mean ± SD, N = 7) of the same compound?
Answer: 5.26 ± 0.91 h

Question: And the Tmax (male, human, plasma, oral, 1400 mg, Tmax (h), single dose 1400 mg, Median (Min, Max))?
Answer: 4 h

Question: And the half-life (male, human, plasma, oral, 1400 mg, mean elimination half-life, single doses 1000 and 1400 mg)?
Answer: 5.3 to 5.7 h

Question: And the half-life (male, human, plasma, oral, 1400 mg, t½ (h), single dose 1400 mg, Mean ± SD)?
Answer: 5.74 ± 1.35 h

Question: What about the half-life (male, human, plasma, oral, mean elimination half-life, multiple doses) of the same compound?
Answer: 5.2 to 7.7 h

Question: And the half-life (male, human, plasma, oral, terminal half-life, fasted state)?
Answer: 3.1 to 5.7 h

Question: What about the half-life (male, human, plasma, oral, terminal half-life, fed state) of the same compound?
Answer: 5.2 to 7.7 h

Question: And the Tmax (male, human, plasma, po, 300 mg, median time to peak plasma concentration, single dose 300 mg, meal 30 minutes after dosing)?
Answer: 1 h

Question: What about the dose excreted (male, human, urine, po, 300 mg, recovered intact in urine over 24 hours, 300 mg fasted, multiple dose) of the same compound?
Answer: 0.028%

Question: And the dose excreted (male, human, urine, po, 300 mg, recovered intact in urine over 24 hours, 300 mg fed, multiple dose)?
Answer: 0.056%

Question: What about the dose excreted (male, human, urine, po, 1000 mg, recovered intact in urine over 24 hours, multiple dose) of the same compound?
Answer: 0.056%

Question: And the accumulation (once daily)?
Answer: approximately 0.9 fold

Question: And the “median time to peak plasma concentration” value (single dose 300 mg, meal 60 minutes after dosing)?
Answer: 2 h

Question: And the “median time to peak plasma concentration” value (single dose 300 mg, meal 90 minutes after dosing)?
Answer: 4 h

Question: What about the accumulation (twice-daily) of the same compound?
Answer: ~1.6 fold
